Data published in ChEMBL document CHEMBL4308841, “Synthesis, in vitro antiproliferative activity, and kinase inhibitory effects of pyrazole-containing diarylureas and diarylamides” (Eur J Med Chem, 2018).

Columns and labels:
NCI-H522 = test: Growth inhibition of human NCI-H522 cells incubated for 48 hrs by sulforhodamine B assay; type: functional, cell-based; details: NCI-H522, 48 h
MOLT-4 = test: Growth inhibition of human MOLT4 cells assessed as cell growth at 0.01 uM incubated for 48 hrs by sulforhodamine B assay relative to control; type: functional; details: MOLT-4, 48 h, read-out: Activity
SN12C = test: Growth inhibition of human SN12C cells assessed as cell growth at 1 uM incubated for 48 hrs by sulforhodamine B assay relative to control; type: functional; details: read-out: Activity
HCT-15 = test: Growth inhibition of human HCT15 cells assessed as cell growth at 0.1 uM incubated for 48 hrs by sulforhodamine B assay relative to control; type: functional; details: HCT-15, 48 h, read-out: Activity
UACC-62 [1] = test: Growth inhibition of human UACC62 cells assessed as cell growth at 0.1 uM incubated for 48 hrs by sulforhodamine B assay relative to control; type: functional; details: UACC-62, 48 h, read-out: Activity
UACC-62 [2] = test: Growth inhibition of human UACC62 cells assessed as cell growth at 0.01 uM incubated for 48 hrs by sulforhodamine B assay relative to control; type: functional; details: UACC-62, 48 h, read-out: Activity
NCI-H322M = test: Growth inhibition of human NCI-H322M cells incubated for 48 hrs by sulforhodamine B assay; type: functional, cell-based
HL-60(TB) = test: Growth inhibition of human HL-60(TB) cells assessed as cell growth at 0.1 uM incubated for 48 hrs by sulforhodamine B assay relative to control; type: functional; details: HL-60, 48 h, read-out: Activity
BT-549 = test: Growth inhibition of human BT549 cells assessed as cell growth at 0.1 uM incubated for 48 hrs by sulforhodamine B assay relative to control; type: functional; details: BT-549, 48 h, read-out: Activity
Malme-3M = test: Growth inhibition of human MALME-3M cells incubated for 48 hrs by sulforhodamine B assay; type: functional, cell-based
RXF 393 [3] = test: Growth inhibition of human RXF393 cells assessed as cell growth at 100 uM incubated for 48 hrs by sulforhodamine B assay relative to control; type: functional; details: RXF 393, 48 h, read-out: Activity
SK-OV-3 = test: Growth inhibition of human SKOV3 cells assessed as cell growth at 100 uM incubated for 48 hrs by sulforhodamine B assay relative to control; type: functional; details: SK-OV-3, 48 h, read-out: Activity
K562 [4] = test: Growth inhibition of human K562 cells assessed as cell growth at 0.1 uM incubated for 48 hrs by sulforhodamine B assay relative to control; type: functional; details: K562, 48 h, read-out: Activity
786-0 = test: Growth inhibition of human 786-0 cells assessed as cell growth at 0.1 uM incubated for 48 hrs by sulforhodamine B assay relative to control; type: functional; details: 786-0, 48 h, read-out: Activity
RXF 393 [5] = test: Growth inhibition of human RXF393 cells incubated for 48 hrs by sulforhodamine B assay; type: functional, cell-based; details: RXF 393, 48 h
NCI/ADR-RES = test: Growth inhibition of human NCI/ADR-RES cells incubated for 48 hrs by sulforhodamine B assay; type: functional, cell-based
MDA-MB-231 = test: Growth inhibition of human MDA-MB-231 cells assessed as cell growth at 1 uM incubated for 48 hrs by sulforhodamine B assay relative to control; type: functional; details: MDA-MB-231, 48 h, read-out: Activity
HOP-62 = test: Growth inhibition of human HOP62 cells assessed as cell growth at 100 uM incubated for 48 hrs by sulforhodamine B assay relative to control; type: functional; details: HOP-62, 48 h, read-out: Activity
ACHN = test: Growth inhibition of human ACHN cells incubated for 48 hrs by sulforhodamine B assay; type: functional, cell-based
SK-MEL-28 = test: Growth inhibition of human SK-MEL-28 cells assessed as cell growth at 0.01 uM incubated for 48 hrs by sulforhodamine B assay relative to control; type: functional; details: SK-MEL-28, 48 h, read-out: Activity
Hs-578T = test: Growth inhibition of human Hs578T cells assessed as cell growth at 0.01 uM incubated for 48 hrs by sulforhodamine B assay relative to control; type: functional; details: read-out: Activity
LOX IMVI = test: Growth inhibition of human LOXIMVI cells assessed as cell growth at 100 uM incubated for 48 hrs by sulforhodamine B assay relative to control; type: functional; details: read-out: Activity
K562 [6] = test: Growth inhibition of human K562 cells assessed as cell growth at 100 uM incubated for 48 hrs by sulforhodamine B assay relative to control; type: functional; details: K562, 48 h, read-out: Activity
UO-31 [7] = test: Growth inhibition of human UO31 cells assessed as cell growth at 1 uM incubated for 48 hrs by sulforhodamine B assay relative to control; type: functional; details: UO-31, 48 h, read-out: Activity
SW-620 = test: Growth inhibition of human SW620 cells assessed as cell growth at 100 uM incubated for 48 hrs by sulforhodamine B assay relative to control; type: functional; details: SW-620, 48 h, read-out: Activity
UO-31 [8] = test: Growth inhibition of human UO31 cells incubated for 48 hrs by sulforhodamine B assay; type: functional, cell-based; details: UO-31, 48 h
UACC-257 = test: Growth inhibition of human UACC257 cells assessed as cell growth at 100 uM incubated for 48 hrs by sulforhodamine B assay relative to control; type: functional; details: UACC-257, 48 h, read-out: Activity
RXF 393 [9] = test: Growth inhibition of human RXF393 cells assessed as cell growth at 0.01 uM incubated for 48 hrs by sulforhodamine B assay relative to control; type: functional; details: RXF 393, 48 h, read-out: Activity
HT-29 = test: Growth inhibition of human HT-29 cells assessed as cell growth at 10 uM incubated for 48 hrs by sulforhodamine B assay relative to control; type: functional; details: HT-29, 48 h, read-out: Activity
OVCAR-8 = test: Growth inhibition of human OVCAR8 cells assessed as cell growth at 0.01 uM incubated for 48 hrs by sulforhodamine B assay relative to control; type: functional; details: OVCAR-8, 48 h, read-out: Activity
[10] = read-out: LC50 (the source's name)
[11] = read-out: pLC50 (the source's name) (converted)

O=C(Nc1cccc(-n2cc(-c3ccncc3)c(-c3cc(O)cc(Cl)c3)n2)c1)c1ccc(N2CCOCC2)c(C(F)(F)F)c1
GI50 (NCI-H522; read-out: GI50): 0.934 µM
CC50 (NCI-H522; [10]): > 100 µM
TGI (NCI-H522; read-out: TGI): 12.1 µM
GI50 (NCI-H522; read-out: pGI50 (converted)): 0.933 µM
CC50 (NCI-H522; [11]): > 100 µM
TGI (NCI-H522; read-out: pTGI (converted)): 12 µM
growth at 0.01 µM (MOLT-4): 93%
growth at 1 µM (SN12C): 58%
growth at 0.1 µM (HCT-15): 94%
growth at 0.1 µM (UACC-62 [1]): 91%
growth at 0.01 µM (UACC-62 [2]): 96%
GI50 (NCI-H322M; read-out: GI50): 2.53 µM
CC50 (NCI-H322M; [10]): > 100 µM
TGI (NCI-H322M; read-out: TGI): > 100 µM
GI50 (NCI-H322M; read-out: pGI50 (converted)): 2.82 µM
CC50 (NCI-H322M; [11]): > 100 µM
TGI (NCI-H322M; read-out: pTGI (converted)): > 100 µM
growth at 0.1 µM (HL-60(TB)): 114%
growth at 0.1 µM (BT-549): 97%
GI50 (Malme-3M; read-out: GI50): 1.38 µM
CC50 (Malme-3M; [10]): > 100 µM
TGI (Malme-3M; read-out: TGI): 51.9 µM
GI50 (Malme-3M; read-out: pGI50 (converted)): 1.38 µM
CC50 (Malme-3M; [11]): > 100 µM
TGI (Malme-3M; read-out: pTGI (converted)): 5.25 µM
growth at 100 µM (RXF 393 [3]): -39%
growth at 100 µM (SK-OV-3): 19%
growth at 0.1 µM (K562 [4]): 100%
growth at 0.1 µM (786-0): 94%
LC50 (RXF 393 [5]): > 100 µM
GI50 (RXF 393 [5]; read-out: GI50): 0.303 µM
TGI (RXF 393 [5]; read-out: TGI): 19 µM
GI50 (RXF 393 [5]; read-out: pGI50 (converted)): 0.302 µM
TGI (RXF 393 [5]; read-out: pTGI (converted)): 1.91 µM
GI50 (NCI/ADR-RES; read-out: GI50): 45.9 µM
CC50 (NCI/ADR-RES; [10]): > 100 µM
TGI (NCI/ADR-RES; read-out: TGI): > 100 µM
GI50 (NCI/ADR-RES; read-out: pGI50 (converted)): 4.57 µM
CC50 (NCI/ADR-RES; [11]): > 100 µM
TGI (NCI/ADR-RES; read-out: pTGI (converted)): > 100 µM
growth at 1 µM (MDA-MB-231): 11%
growth at 100 µM (HOP-62): -7%
GI50 (ACHN; read-out: GI50): 1.54 µM
CC50 (ACHN; [10]): > 100 µM
TGI (ACHN; read-out: TGI): 29.3 µM
GI50 (ACHN; read-out: pGI50 (converted)): 1.82 µM
CC50 (ACHN; [11]): > 100 µM
TGI (ACHN; read-out: pTGI (converted)): 29.5 µM
growth at 0.01 µM (SK-MEL-28): 99%
growth at 0.01 µM (Hs-578T): 96%
growth at 100 µM (LOX IMVI): -45%
growth at 100 µM (K562 [6]): -24%
growth at 1 µM (UO-31 [7]): 57%
growth at 100 µM (SW-620): -19%
IC50 (UO-31 [8]): 1.41 µM
GI50 (UO-31 [8]; read-out: GI50): 1.41 µM
CC50 (UO-31 [8]; [10]): > 100 µM
TGI (UO-31 [8]; read-out: TGI): 15.5 µM
GI50 (UO-31 [8]; read-out: pGI50 (converted)): 1.12 µM
CC50 (UO-31 [8]; [11]): > 100 µM
TGI (UO-31 [8]; read-out: pTGI (converted)): 15.5 µM
growth at 100 µM (UACC-257): -27%
growth at 0.01 µM (RXF 393 [9]): 91%
growth at 10 µM (HT-29): 16.9%
growth at 0.01 µM (OVCAR-8): 101%
